Data reported in paper PMC11178805, “Ligand-based design of [^18F]OXD-2314 for PET imaging in non-Alzheimer’s disease tauopathies” (Nature Communications, 2024).
“And” between values parts separate entries of the source, which are not always exact repeats. Equal values may be shown once.

What was measured:
[1] = logD7.4 by shake-flask method; assay type: physicochemical; conditions: pH 7.4
Description: [^18F]OXD-2314 was radiolabeled by an analogous method previously reported for [^18F]OXD-2115 with minor modifications (Fig. 2)[30]. [^18F]OXD-2314 was reliably produced with high radiochemical purity (RCP) ranging from 95-98%, molar activity (Am) of […] (n = 4), and radiochemical yield (RCY) of 8.7 ± 3.7% (not decay-corrected, ndc) in the laboratories in Toronto and was replicated with Am of 349 ± 144 GBq/μmol (n = 4) and RCY of 2.3 ± 1.1% (ndc) in the laboratories in Pittsburgh. The logD7.4 value of [^18F]OXD-2314 was measured as 3.11 ± 0.04 using the shake-flask method.

aggregated Aβ = target: T1, aggregated Aβ (Homo sapiens, UniProt P05067); test: Competition binding vs [^3H]PiB in AD tissue homogenates; conditions: n = 3
T1 construct: tissue Neurodegenerative Disease Brain Bank at UCSF; host or cells: human AD brain, middle frontal gyrus, pooled homogenate
Experimental: (§1) Fresh frozen, autopsy-confirmed human PD anterior cingulate cortex brain tissue blocks (1 cm^3) were obtained from Dr. Thomas Beach at Banner/Sun Health AZ with funding from the Michael J. Fox Foundation and contained frequent α-synuclein aggregates and no other detectable aggregated amyloid species. The frozen tissue blocks were prepared for the binding assays as previously described[47],[48], except that equal quantities of the homogenates of three AD brains (AD1-AD3, Table S1) were pooled, as were homogenates from three PSP brains (PSP1-PSP3), three CBD brains (CBD1-CBD3), three Pick’s brains (PiD1-PiD3), and 4 PD brains (PD1-PD4) in order to help minimize the inter-subject variability within the different neuropathological groups. Individual subcortical brain tissues from a PSP subject (PSP4) and a CBD subject (CBD4), as well as with the middle frontal cortex of a control subject, were prepared for the binding assays as previously described[47],[48].
(§2) The equilibrium inhibition constant (Ki) values of the unlabeled compounds were determined versus tritium-labeled radioligands using published methods.

[2] = target: 3R/4R-tau aggregates in AD tissue (Homo sapiens, UniProt P10636); test: Competition binding vs [^3H]OXD-2115 in AD tissue homogenates; conditions: vs [^3H]OXD-2115, AD tissue homogenates, n = 1
Experimental: as §1, §2

MAO-A = target: T2, MAO-A (Homo sapiens, UniProt P21397); test: In vitro pharmacology screen (Eurofins): MAO-A; assay type: binding; conditions: read-out: interaction with MAO-A (% inhibition)
T2 construct: purchased Eurofins, France (contract screening)
T2 sequence (P21397 1-527): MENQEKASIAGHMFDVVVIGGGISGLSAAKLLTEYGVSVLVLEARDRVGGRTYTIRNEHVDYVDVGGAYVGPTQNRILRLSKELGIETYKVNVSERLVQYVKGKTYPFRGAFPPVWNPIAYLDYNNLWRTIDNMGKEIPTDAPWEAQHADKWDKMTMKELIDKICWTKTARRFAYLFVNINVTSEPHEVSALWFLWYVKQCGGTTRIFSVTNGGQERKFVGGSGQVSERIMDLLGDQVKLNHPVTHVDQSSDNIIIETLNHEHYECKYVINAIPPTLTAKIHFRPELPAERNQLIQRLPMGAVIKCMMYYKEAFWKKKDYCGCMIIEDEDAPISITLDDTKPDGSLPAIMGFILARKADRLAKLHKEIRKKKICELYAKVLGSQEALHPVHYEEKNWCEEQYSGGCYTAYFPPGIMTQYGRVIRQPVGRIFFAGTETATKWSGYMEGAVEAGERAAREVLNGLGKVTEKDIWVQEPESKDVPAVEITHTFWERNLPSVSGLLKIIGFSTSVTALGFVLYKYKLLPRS
Experimental: (§3) OXD-2314 binding to CNS receptors was calculated as a percentage of inhibition of a receptor-specific radioligand. Enzyme inhibition was calculated as the percent inhibition of baseline enzyme activity where inhibition above 50% was considered significant. […] Norepinephrine transports are expressed in low concentration throughout the brain and its relative concentration are not affected by aging or neurodegeneration. 5-lipoxygenase may be overexpressed in aging brain and play some role in neurodegeneration, which could be necessary to further investigate in vivo[42]. Off-target binding to monoamine oxidase A and B (MAO-A and MAO-B) has been seen with some tau PET radiotracers[43],[44].

5-lipoxygenase = target: T3, 5-lipoxygenase (Homo sapiens, UniProt P09917); test: In vitro pharmacology enzyme screen (Eurofins): 5-lipoxygenase; assay type: biochemical
T3 construct: purchased Eurofins, France (contract screening)
T3 sequence (P09917 1-674): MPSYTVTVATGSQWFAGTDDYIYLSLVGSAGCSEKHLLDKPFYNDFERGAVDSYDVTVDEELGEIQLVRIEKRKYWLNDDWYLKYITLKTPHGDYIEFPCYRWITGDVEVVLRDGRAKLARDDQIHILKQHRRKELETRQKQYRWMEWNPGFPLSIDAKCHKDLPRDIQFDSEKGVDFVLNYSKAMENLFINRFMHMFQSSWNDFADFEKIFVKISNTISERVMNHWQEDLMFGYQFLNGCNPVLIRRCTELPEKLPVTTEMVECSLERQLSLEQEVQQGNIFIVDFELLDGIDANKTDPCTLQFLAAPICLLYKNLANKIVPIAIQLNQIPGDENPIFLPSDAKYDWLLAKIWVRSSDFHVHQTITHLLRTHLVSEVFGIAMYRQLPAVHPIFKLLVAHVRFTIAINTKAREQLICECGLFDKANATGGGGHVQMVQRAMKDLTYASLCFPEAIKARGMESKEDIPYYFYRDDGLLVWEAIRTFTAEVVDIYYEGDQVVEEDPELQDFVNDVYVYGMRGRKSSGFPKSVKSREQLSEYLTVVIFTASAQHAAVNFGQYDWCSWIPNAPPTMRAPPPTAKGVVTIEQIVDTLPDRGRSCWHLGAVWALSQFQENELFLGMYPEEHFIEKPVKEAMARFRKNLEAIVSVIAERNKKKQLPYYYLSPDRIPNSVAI
Experimental: as §3

[3] = Mouse pharmacology (DMPK): plasma and brain concentrations, brain-to-plasma ratios after i.v. administration; assay type: in vivo, mice
Experimental: Ex vivo evaluation of the BBB permeability of OXD-2314 was performed by measuring the brain-to-plasma ratios in mice. Compound concentrations in plasma (0.03 h, 0.17 h, 0.5 h, 1 h, and 2 h; n = 3 per timepoint) were compared with concentrations in brain (0.03 h, 0.17 h, 1 h, and 2 h; n = 3 per timepoint) for both OXD-2115 and OXD-2314. The total brain-to-plasma concentration ratios were 1.7 for OXD-2314 and 0.1 for OXD-2115. The free concentration ratio for brain-to-plasma was 0.6 for OXD-2314 and 0.002 for OXD-2115 (Figs. S3–S8 and Tables S2, S3).

[4] = target: T4, 4R-tau aggregates in PSP tissue (Homo sapiens, UniProt P10636); test: Competition binding vs [^3H]OXD-2314 in PSP tissue
T4 construct: tissue Neurodegenerative Disease Brain Bank at UCSF
Experimental: as §1, §2

T4 sequence (P10636 1-441 isoform P10636-8): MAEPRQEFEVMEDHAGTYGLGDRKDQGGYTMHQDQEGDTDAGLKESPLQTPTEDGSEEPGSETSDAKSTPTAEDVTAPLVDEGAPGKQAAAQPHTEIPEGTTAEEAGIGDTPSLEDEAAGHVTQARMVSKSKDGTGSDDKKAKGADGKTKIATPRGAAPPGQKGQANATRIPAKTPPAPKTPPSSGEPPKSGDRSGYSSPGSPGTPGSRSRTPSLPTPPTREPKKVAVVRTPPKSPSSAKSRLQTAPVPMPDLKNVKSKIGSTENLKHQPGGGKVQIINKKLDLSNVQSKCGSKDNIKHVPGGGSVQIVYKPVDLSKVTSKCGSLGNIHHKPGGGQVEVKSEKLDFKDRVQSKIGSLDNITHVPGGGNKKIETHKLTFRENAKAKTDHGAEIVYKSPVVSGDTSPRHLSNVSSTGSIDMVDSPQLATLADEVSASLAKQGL
3R/4R-tau aggregates in AD tissue, sequence (P10636 623-695 limits assumed): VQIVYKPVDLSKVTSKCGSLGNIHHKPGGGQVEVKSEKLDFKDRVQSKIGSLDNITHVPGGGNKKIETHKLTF
T1 sequence (P05067 672-713 limits assumed): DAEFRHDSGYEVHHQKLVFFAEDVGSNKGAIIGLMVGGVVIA

Ki (aggregated Aβ)	Ki [2]	inhibition at 10 µM (MAO-A)	inhibition at 10 µM (5-lipoxygenase)	Conc. (ng/ml), brain ([3]; mouse brain, t=1 hr after i.v. administration, individual animals, LC-MS/MS 341.7500>256.1500, re-run Brain_2)	Conc. (ng/ml), brain ([3]; mouse brain, t=2 hr after i.v. administration, individual animals, LC-MS/MS 341.7500>256.1500, re-run Brain_2)	Kp,uu (unbound brain-to-plasma ratio) ([3]; mouse, brain, iv, mice, i.v., AUC brain:plasma, FREE, read-out: free concentration ratio brain-to-plasma)	Kp ([3]; mouse, brain, iv, mice, i.v., AUC brain:plasma, TOTAL, read-out: total brain-to-plasma concentration ratio)	concentration at 1 h ([3]; mouse, brain, iv, mouse brain, t=1 hr after i.v. administration, individual animals, LC-MS/MS 341.7500>256.1500, re-run Brain_2, read-out: Conc. (ng/ml), brain)	Ki [4]	Compound	logD [1]
–	–	–	–	–	–	–	–	–	–	CO[C@H]1CCCN(c2ccc(-c3cc4cc(O)ccc4[nH]3)c([18F])n2)C1 [[^18F]OXD-2314]	3.11 ± 0.04
161 ± 34 nM	8.8 nM	-1.7%	50.1%	0.851 ng/mL	0.647 ng/mL and 0.5 ng/mL and 0.3 ng/mL	0.6	1.7	1 ng/mL	5.8 ± 0.2 nM	COC1CCCN(c2ccc(-c3cc4cc(O)ccc4[nH]3)c(F)n2)C1 (centres unmarked) [OXD-2314, 2-(2-fluoro-6-(3-methoxypiperidin-1-yl)pyridin-3-yl)-1H-indol-5-ol]	–
